In patent publication US11505533B2, “Metabolically stable N-acylaminooxadiazoles useful as antibacterial agents” (MICROBIOTIX, INC., priority 2017, dated 2022):
In brackets after ≈: the same amount, converted by molar mass.

Key:
[1] = system: S. aureus (MRSA-1234547263, Cip-res); type: cell-based; settings: Staphylococcus aureus, MRSA
MRSA-1094 (MDR) = type: cell-based; settings: Staphylococcus aureus, MRSA
[2] = system: S. aureus (ATCC 35556, spec, kan-res); type: cell-based; settings: Staphylococcus aureus, ATCC35556
[3] = system: S. aureus NRS-77 (spec-res); type: cell-based; settings: Staphylococcus aureus, NRS77
[4] = system: S. aureus WTBF-19 (MSSA. osteomyelitis isolate); type: cell-based; settings: Staphylococcus aureus, MSSA
[5] = system: S. aureus ATCC 25923 (MSSA. osteomyelitis isolate); type: cell-based; settings: Staphylococcus aureus
MRSA USA 300 (BAA-1717) = type: cell-based; settings: Staphylococcus aureus
MRSA N315 NRS-70 = type: cell-based; settings: Staphylococcus aureus
S. pneumoniae 49619 = type: cell-based; settings: Streptococcus pneumoniae, 49619
M. pneumoniae 15531 = type: cell-based; settings: Mycoplasmoides pneumoniae, 15531
B. anthracis = test: microbe, parasite or virus in culture; type: cell-based; settings: Bacillus anthracis
[6] = system: E. coli (700, TolC+) efflux pos; type: cell-based; settings: Escherichia coli
N. gonorrhoeae 49226 = type: cell-based; settings: Neisseria gonorrhoeae, 49226
[7] = system: N. gonorrhoeae H041 (MDR including AZM and CTX); type: cell-based; settings: Neisseria gonorrhoeae
Yersinia pestis = test: microbe, parasite or virus in culture; type: cell-based
Brucella suis = test: microbe, parasite or virus in culture; type: cell-based
[8] = system: Franciscella tularensis (Schu13); test: organism not typed; type: cell-based
[9] = system: Moraxella catarrhalis 8176; type: cell-based
[10] = system: Legionella pneumophila 33153; test: microbe, parasite or virus in culture; type: cell-based
[11] = system: Haemophilus influenza 35056; type: cell-based; settings: Haemophilus, 35056
N. gonorrhoeae = test: MIC90 determination, clinical isolates; type: cell-based; settings: Neisseria gonorrhoeae
Franciscella tularensis = test: organism not typed; type: cell-based
E. coli TolC(−) [12] = test: TolC(−) MIC (NB); type: cell-based; settings: Escherichia coli, read-out: TolC(−) MIC (μM)(NB)
Caco-2 permeability = type: in vitro ADME; settings: human, direction not given
From the text: Res., 15(5): 726-733 (1998).

E. coli TolC(−) [13] = settings: MIC in the presence of 10% fetal calf serum versus without
Mouse serum stability = settings: 5 μM, 37° C., 4 h
[14] = Mammalian cell cytotoxicity
[15] = Microsomal stability + NADPH; settings: mouse liver microsomes, 0.5 hr at 37° C.
[16] = Aqueous solubility, nephelometry; settings: water, kinetic from dmso stock

**Q.** With `O=C(Nc1nnc(-c2ccc(F)cc2)o1)N1CCc2ccccc2C1` [compound 4132, N-[5-(4-fluorophenyl)-1,3,4-oxadiazol-2-yl]-3,4-dihydroisoquinoline-2(1H)-carboxamide] as the compound, how does the MIC [1] read?
**A.** 3.17 µg/mL (≈ 9.37 µM)

**Q.** What about the MIC (MRSA-1094 (MDR)) of the same compound?
**A.** 3.17 µg/mL (≈ 9.37 µM)

**Q.** And the MIC [2]?
**A.** 4.23 µg/mL (≈ 12.5 µM)

**Q.** What about the MIC [3] of the same compound?
**A.** 3.17 µg/mL (≈ 9.37 µM)

**Q.** And the MIC [4]?
**A.** 4.23 µg/mL (≈ 12.5 µM)

**Q.** What about the MIC [5] of the same compound?
**A.** 6.34 µg/mL (≈ 18.7 µM)

**Q.** And the MIC (MRSA USA 300 (BAA-1717))?
**A.** 1.06 µg/mL (≈ 3.13 µM)

**Q.** What about the MIC (MRSA N315 NRS-70) of the same compound?
**A.** 6.34 µg/mL (≈ 18.7 µM)

**Q.** What about the MIC (S. pneumoniae 49619) of the same compound?
**A.** 33.8 µg/mL (≈ 99.9 µM)

**Q.** And the MIC (M. pneumoniae 15531)?
**A.** > 33.8 µg/mL

**Q.** And the MIC (B. anthracis)?
**A.** 4.06 µg/mL (≈ 12 µM)

**Q.** And the MIC [6]?
**A.** > 35 µg/mL

**Q.** And the MIC (N. gonorrhoeae 49226)?
**A.** 0.18 µg/mL (≈ 0.532 µM)

**Q.** And the MIC [7]?
**A.** 0.13 µg/mL (≈ 0.384 µM)

**Q.** And the MIC (Yersinia pestis)?
**A.** 8.46 µg/mL (≈ 25 µM)

**Q.** What about the MIC (Brucella suis) of the same compound?
**A.** 4.23 µg/mL (≈ 12.5 µM)

**Q.** And the MIC [8]?
**A.** 0.13 µg/mL (≈ 0.384 µM)

**Q.** What about the MIC [9] of the same compound?
**A.** 0.034 µg/mL (≈ 0.1 µM)

**Q.** And the MIC [10]?
**A.** 8.46 µg/mL (≈ 25 µM)

**Q.** And the MIC [11]?
**A.** 16.9 µg/mL (≈ 50 µM)

**Q.** And the MIC90 (N. gonorrhoeae)?
**A.** 0.54 µg/mL (≈ 1.6 µM)

**Q.** And the MIC90 (Franciscella tularensis)?
**A.** 0.13 µg/mL (≈ 0.384 µM)

**Q.** What about the MIC (E. coli TolC(−) [12]) of the same compound?
**A.** 7.87 µM (≈ 2.66 µg/mL)

**Q.** And the Papp (Caco-2 permeability)?
**A.** 65.8 ×10⁻⁶ cm/s

**Q.** What about the “Fold Serum Shift vs. TolC(−)” value (E. coli TolC(−) [13]) of the same compound?
**A.** 12.7 fold

**Q.** And the “Serum Stability (% remain)” value (Mouse serum stability)?
**A.** >95%

**Q.** And the CC50 [14]?
**A.** 27.2 µM

**Q.** What about the “Microsomal Stability + NADPH % degraded” value [15] of the same compound?
**A.** 27%

**Q.** What about the solubility [16] of the same compound?
**A.** 6.25 µM (≈ 2.11 µg/mL)
